In one assay the target is SMARCA4 (Homo sapiens, UniProt P51532). The assay is described as follows: Imaging-based SMARCA4 protein assay in RKO cells. Details: endogenous in cells; host or cells: RKO, HCT116, LU99, HCC-364, HCT-15, HCC4006, SK-N-AS. The settings on record: individual replicates. Format: cell-based. As for the experimental part:
1250 cells per well in 60 µl medium were plated in flat bottom, poly-lysin coated 384-well plates (CellCarrier Ultra, Perkin Elmer). The next day, test compounds (10 µl of serial dilutions) and DMSO controls were diluted in DMEM medium such that the final DMSO content was <1% or were added using an ultrasound dispensing system. 4 wells were reserved for a background measurement. […] After aspirating the fixing solution, the cells were washed once with 25 µl PBS. 25 µl of blocking buffer (10% goat serum in PBS) was added and cells were incubated for 30 min, then washed once with PBS. Cells were stained with 20 µl of SMARCA2/4 primary antibody solution (Sigma #HPA029981 RRID:AB_10602406 1:1000 or Cell Signalling #52251 clone E9O6 RRID:AB_2799410 1:1000 in PBS with 10% FCS) for 2–4 h at room temperature. Cells were again washed once with PBS. […] The cell layer was then washed once with 25 µl PBS, the wells were filled with 25 µl PBS and the plates were sealed with an adhesive sheet. They were then imaged on the Opera Phoenix (mean intensity in the nucleus). Results were computed as percent of controls ((value of test compound − background)/(value of the negative control DMSO—background) multiplied by 100). EC50 values were computed using a 4-parametric logistic model.

The target in a further assay is T1, SMARCA4^BD (Homo sapiens, UniProt P51532).
T1 construct: P51532, residues 1448–1569 with additional N-terminal SM residues; GST (TEV site) (N, cleaved yes); made in house; host or cells: Escherichia coli BL21(DE3); construct from SGC Toronto
T1 sequence (P51532 1448-1569): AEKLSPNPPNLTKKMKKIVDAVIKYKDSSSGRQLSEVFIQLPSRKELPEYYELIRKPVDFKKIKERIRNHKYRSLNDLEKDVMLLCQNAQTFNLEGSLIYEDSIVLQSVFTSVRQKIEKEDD
The assay is described as follows: SPR binding to immobilised SMARCA4 bromodomain. How it is done:
SMARCA4^BD was provided by the Structural Genomics Consortium (SGC), Toronto[32] and SMARCA2^BD and PRM1^BD5 were synthesised by GeneArt then subcloned into pDEST15 vectors (Invitrogen). The VCB complex was expressed and purified as described previously, with the modification that 0.3 mM IPTG was used for induction of expression. […] Both were stored in 20 mM 4-(2-hydroxyethyl)−1-piperazineethanesulfonic acid (HEPES), 150 mM sodium chloride and 1 mM tris(2-carboxyethyl)phosphine (TCEP) pH 7.5. SMARCA2^BD, SMARCA4^BD and PBRM1^BD5 were expressed in Escherichia coli BL21(DE3) as N-terminal GST fusion proteins with a TEV protease cleavage site. Expression and purification of these proteins has been described previously[32],[33]. Starter cultures were grown overnight at 37 °C in 10 mL of Luria-Bertani (LB) medium with ampicillin (100 μg/mL). The starter cultures were diluted (1:100) in Terrific Broth (TB) medium with ampicillin (100 μg/mL) and grown in a shaking incubator at 37 °C to an optical density (OD600) ~1 before the temperature was lowered for induction (to 23 °C for SMARCA2^BD or 18 °C for SMARCA4^BD and PRRM1^BD5). […] Cells were harvested by centrifugation and stored at −80 °C prior to purification. Cells were resuspended in Lysis buffer and lysed by sonication (20 pulses of 5 s for 4 min) using a Sonopuls HD 3080 (Bandelin, Berlin, Germany) or by homogenisation using a Stansted Pressure Cell Homogeniser (Stansted Fluid Power). The Lysis buffers were as follows: for SMARCA2^BD: 50 mM HEPES, 500 mM sodium chloride, 5% glycerol, 5 mM dithiothreitol (DTT); for SMARCA4^BD: 25 mM HEPES, 0.3 M sodium chloride, 5% glycerol, 10 mM DTT, pH 7.5; for PBRM1^BD5: 25 mM HEPES, 300 mM sodium chloride, 5% glycerol, 10 mM DTT, pH 7.8; in each case supplemented with complete protease inhibitors (Roche). Affinity purification was performed using Glutathione Sepharose 4B (GE Healthcare) in batch mode or on-column. […] For SMARCA2^BD, prior to TEV protease cleavage the eluted GST-tagged BD was first dialysed into desalting buffer (20 mM HEPES, 250 mM sodium chloride, pH 7.0 + 0.5% glycerol). Where TEV cleavage was performed in solution, a second affinity (GST-trap) column purification step was carried out to remove the GST-tag and uncleaved GST-tagged protein. Proteins were further purified by SEC (HiLoad Superdex-75, 16/600) (GE Healthcare) and stored in Storage buffer (for SMARCA2^BD: 20 mM HEPES, 150 mM sodium chloride, pH 7.5; for SMARCA4^BD: 10 mM HEPES, 0.5 M NaCl, 5% glycerol, pH 7.5; for PBRM1^BD5: 20 mM HEPES, 300 mM NaCl, 5 mM DTT, pH 7.8). For AlphaScreen assays, eluted GST-tagged BDs were purified directly by SEC in the respective storage buffers without TEV cleavage. All chromatography purification steps were performed either at room temperature or 4 °C using an ÄKTA FPLC purification system (GE Healthcare) or a plastic Econo-Pac column (Bio-Rad).
SPR data were acquired on Biacore 8K or T200 instruments (Cytiva). Target proteins were immobilised at 25 °C on CM5 chips by amine coupling (EDC/NHS, Cytiva) in HBS-P+ running buffer (pH 7.4), containing 2 mM TCEP. After surface activation with EDC/NHS (contact time 420 s, flow rate 10 µl/min) SMARCA2^BD and SMARCA4^BD at 0.01–0.05 mg/ml in coupling buffer (10 mM Na-Acetate pH 6.5, 0.005% TWEEN 20 and 50 µM PFI-3[13]) were immobilised to a density of 100–5000 Response Units (RU). The reference surface was subsequently deactivated using 1 M ethanolamine. For VCB immobilisation, streptavidin (Sigma Aldrich, prepared at 1 mg/ml in 10 mM sodium acetate coupling buffer, pH 5.0) was immobilised by amine coupling to a density of 3000–5000 RU after which biotinylated VCB complex (0.125 mM in running buffer) was streptavidin-coupled to a density of 100–500 RU. Biotinylated VCB was prepared as previously described[27]: in brief, the complex was mixed 1:1 with EZ-Link NHS–PEG4–biotin (Thermo Scientific) and incubated at room temperature for 1 h.
For orientation: SPR reads the build-up and loss of mass on a sensor chip optically.

The mark [1] stands for this setting: 18h, read-out: RKO (18h) SMARCA4 DC50.
Setting [2] is: 4h, read-out: RKO (4h) SMARCA4 DC50.

Molecules are shown by their SMILES. Where “and” joins values, the source holds several entries; their conditions need not be identical. Equal entries are not always repeated. Where two headings read alike, the source gives them in different places.

Sequence of SMARCA4 (P51532 whole entry): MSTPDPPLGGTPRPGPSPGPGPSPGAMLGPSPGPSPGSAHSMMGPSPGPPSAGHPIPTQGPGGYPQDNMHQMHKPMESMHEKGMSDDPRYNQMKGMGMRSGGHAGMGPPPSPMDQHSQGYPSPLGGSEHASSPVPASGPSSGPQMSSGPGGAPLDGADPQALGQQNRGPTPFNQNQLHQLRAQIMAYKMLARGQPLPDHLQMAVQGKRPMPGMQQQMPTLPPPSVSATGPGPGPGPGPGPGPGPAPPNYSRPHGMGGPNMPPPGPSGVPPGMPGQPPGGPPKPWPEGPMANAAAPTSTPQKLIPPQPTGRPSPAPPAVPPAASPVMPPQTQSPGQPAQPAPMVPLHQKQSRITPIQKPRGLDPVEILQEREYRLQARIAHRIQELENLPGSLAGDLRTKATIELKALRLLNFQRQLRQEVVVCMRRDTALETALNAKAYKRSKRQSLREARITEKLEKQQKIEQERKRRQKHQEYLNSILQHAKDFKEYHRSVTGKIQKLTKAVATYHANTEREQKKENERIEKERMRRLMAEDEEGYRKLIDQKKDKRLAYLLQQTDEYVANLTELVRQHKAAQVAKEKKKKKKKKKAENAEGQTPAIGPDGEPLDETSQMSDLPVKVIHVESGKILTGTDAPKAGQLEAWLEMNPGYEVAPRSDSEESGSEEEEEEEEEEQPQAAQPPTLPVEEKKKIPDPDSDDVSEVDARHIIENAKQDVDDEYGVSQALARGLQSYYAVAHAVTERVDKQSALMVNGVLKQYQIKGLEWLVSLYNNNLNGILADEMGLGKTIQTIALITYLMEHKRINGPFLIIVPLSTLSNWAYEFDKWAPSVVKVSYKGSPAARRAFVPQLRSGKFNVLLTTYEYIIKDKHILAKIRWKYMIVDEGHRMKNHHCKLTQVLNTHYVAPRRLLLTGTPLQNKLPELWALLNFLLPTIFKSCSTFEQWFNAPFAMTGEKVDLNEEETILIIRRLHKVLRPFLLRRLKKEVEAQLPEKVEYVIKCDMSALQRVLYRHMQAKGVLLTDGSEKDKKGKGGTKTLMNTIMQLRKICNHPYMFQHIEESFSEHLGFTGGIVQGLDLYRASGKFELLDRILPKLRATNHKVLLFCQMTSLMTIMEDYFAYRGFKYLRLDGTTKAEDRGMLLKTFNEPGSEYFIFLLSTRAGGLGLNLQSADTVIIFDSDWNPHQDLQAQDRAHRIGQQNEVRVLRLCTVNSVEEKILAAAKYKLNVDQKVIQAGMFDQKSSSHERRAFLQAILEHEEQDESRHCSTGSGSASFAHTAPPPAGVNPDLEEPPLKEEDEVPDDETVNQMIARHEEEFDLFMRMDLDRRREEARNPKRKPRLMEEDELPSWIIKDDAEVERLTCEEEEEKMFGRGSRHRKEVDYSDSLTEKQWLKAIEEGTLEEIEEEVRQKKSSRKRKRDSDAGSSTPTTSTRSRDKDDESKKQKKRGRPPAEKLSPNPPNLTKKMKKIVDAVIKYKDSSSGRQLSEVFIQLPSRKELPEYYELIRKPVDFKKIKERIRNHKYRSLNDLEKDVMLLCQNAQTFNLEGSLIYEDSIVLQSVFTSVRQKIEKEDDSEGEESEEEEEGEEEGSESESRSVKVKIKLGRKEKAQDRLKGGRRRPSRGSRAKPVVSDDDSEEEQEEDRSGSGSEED

With `Cc1ncsc1-c1ccc(C(CCC(C)CCN2CCC(c3ccc4c(c3)n(C3CCCC3)c3nc(=O)c5c(Br)cccc5n43)CC2)NC(=O)C2CC(O)CN2C(=O)C(NC(=O)C2(F)CC2)C(C)(C)C)cc1` (stereo not shown) [ACBI2], the DC50 at SMARCA4 (setting [1]) is 37.7 nM and 30.3 nM and 30.7 nM and 30.9 nM and 26.2 nM and 33.5 nM and 25.2 nM and 30.8 nM and 63.4 nM and 30 nM and 29.1 nM and 27.7 nM. Also, the Kd on SMARCA4^BD (SMARCA4BD, mean ± SD) was 314 ± 76 nM; on SMARCA4^BD (individual replicates), 236 nM and 318 nM and 388 nM.
For `Cc1ncsc1-c1ccc([C@H](CC[C@H](C)CCN2CCC(c3ccc4c(c3)n(C3CCCC3)c3nc(=O)c5c(Br)cccc5n43)CC2)NC(=O)[C@@H]2C[C@H](O)CN2C(=O)[C@@H](NC(=O)C2(F)CC2)C(C)(C)C)cc1` [compound 12], the DC50 at SMARCA4 (setting [2]) was more than 25000 nM; at SMARCA4 (setting [1]) it was 4950 nM and 4740 nM and 8100 nM and 6070 nM. In addition, the Kd is 362 ± 52 nM at SMARCA4^BD (SMARCA4BD, mean ± SD); 306 nM and 408 nM and 370 nM on SMARCA4^BD (individual replicates).
Turning to `Cc1ncsc1-c1ccc([C@H](CCC(C)(C)CCN2CCC(c3ccc4c(c3)n(C3CCCC3)c3nc(=O)c5c(Br)cccc5n43)CC2)NC(=O)[C@@H]2C[C@@H](O)CN2C(=O)[C@@H](NC(=O)C2(F)CC2)C(C)(C)C)cc1` [compound 30], the DC50 at SMARCA4 (setting [2]) was more than 25000 nM. Moreover, the Kd was 579 ± 89 nM on SMARCA4^BD (SMARCA4BD, mean ± SD); 492 nM and 575 nM and 669 nM on SMARCA4^BD (individual replicates).
`O=c1nc2n(C3CCCC3)c3ccccc3n2c2cccc(Br)c12` [compound 1]: the DC50 on SMARCA4 (setting [2]) and at SMARCA4 (setting [1]) was more than 25000 nM throughout. Also, the Kd on SMARCA4^BD (SMARCA4BD, mean ± SD) was 1680 ± 317 nM; at SMARCA4^BD (individual replicates), 1320 nM and 1830 nM and 1900 nM.
Take `Cc1ncsc1-c1ccc([C@H](COC(C)CN2CCC(c3ccc4c(c3)n(C3CCCC3)c3nc(=O)c5c(Br)cccc5n43)CC2)NC(=O)[C@@H]2C[C@@H](O)CN2C(=O)[C@@H](NC(=O)C2(F)CC2)C(C)(C)C)cc1` (stereo partly shown) [compound 9]: the DC50 was more than 25000 nM at SMARCA4 (setting [2]); 912 nM and > 833 nM (2×) and 3.47 µM at SMARCA4 (setting [1]). Besides, the Kd is 505 ± 184 nM at SMARCA4^BD (SMARCA4BD, mean ± SD); 361 nM and 443 nM and 712 nM on SMARCA4^BD (individual replicates).
As to `Cc1ncsc1-c1ccc(CNC(=O)[C@@H]2C[C@H](O)CN2C(=O)[C@@H](NC(=O)C2(F)CC2)C(C)(C)C)c(OCCN2CCC(c3ccc4c(c3)n(C3CCCC3)c3nc(=O)c5c(Br)cccc5n43)CC2)c1` [compound 19], the DC50 at SMARCA4 (setting [2]) and at SMARCA4 (setting [1]) was more than 25000 nM in each case. For the same molecule, the dissociation constant (Kd) on SMARCA4^BD (SMARCA4BD, mean ± SD) was 138 ± 43 nM; on SMARCA4^BD (individual replicates), 98.2 nM and 132 nM and 183 nM.
Take `CN1CCN(c2nc(=O)c3ccccc3o2)CC1` [compound 14]: the DC50 at SMARCA4 (setting [2]) and on SMARCA4 (setting [1]) was more than 25000 nM throughout. At SMARCA4^BD (individual replicates), the Kd was > 200000 nM and 140000 nM.

As a reminder, the Kd is the free concentration of one partner at which half of the binding sites on the other are occupied at equilibrium, for simple one-to-one binding. Read a low Kd as tighter binding.

For the origin of these results see paper PMC9551036, “A selective and orally bioavailable VHL-recruiting PROTAC achieves SMARCA2 degradation in vivo” (Nature Communications, 2022).
